Laboratory results published in US20130150340A1, “6-(4-Hydroxy-phenyl)-1H-pyrazolo[3,4-b]pyridine-4-carboxylic acid amide derivatives as kinase inhibitors” (SANOFI, priority 2011, published 2013).

Target: T1, human full-length recombinant PKC βII (Homo sapiens, UniProt P05771)
T1 construct: Active human full-length recombinant PKC βII; purchased Invitrogen GmbH, Darmstadt, Germany
Test: Determination of PKC βII inhibition (Caliper mobility-shift kinase assay)
Type: biochemical
Settings: example compounds at a final concentration of 1.14 μM (±0.15 μM); 60 min incubation at 32° C.
Protocol: Determination of PKC 3H Inhibition
PKC βII inhibition was determined according to the following protocol:
Active human full-length recombinant PKC βII and the peptide substrate, Fluorescein-RFARKGSLRQKNV, were purchased from Invitrogen GmbH, Darmstadt, Germany. Adenosine-5′-triphosphate (ATP), bovine serum albumine (BSA), dimethylsulphoxide (DMSO), 4-(2-hydroxyethyl)piperazine-1-ethanesulfonic acid (Hepes), Triton X-100, 1,2-Dioleoyl-sn-glycerol (DAG), L-α-Phosphatidyl-L-serine (PS), calcium chloride (CaCl2), and Pluronic F-68 were purchased from Sigma-Aldrich, Munich, Germany. Magnesium chloride, 1 M sodium hydroxide solution, 1M hydrochloric acid solution and EDTA were obtained from Merck Biosciences, Darmstadt, Germany.
Test compounds were diluted to three times the test concentration in buffer 1 (30 mM Hepes-NaOH, pH 7.4, 0.01% Pluronic F-68 and 3% (v/v) DMSO). The PKC βII enzyme was diluted to a concentration of 30 ng/ml in buffer 2 (30 mM Hepes-NaOH, pH 7.4, 15 mM MgCl2, 150 μM CaCl2, 150 μg/ml PS, 60 μg/ml DAG, and 0.045% (w/v) Triton X-100). The peptide substrate and ATP were diluted to concentrations of 3 μM and 120 μM, respectively, in buffer 2. Two μl of the compound solution were mixed with 2 μl of the diluted enzyme in a 384-well small volume microtiter plate (Greiner, Bio-One, Frickenhausen, Germany), and the kinase reaction was initiated by addition of 2 μl of the solution containing peptide substrate and ATP. After 60 min incubation at 32° C., the reaction was stopped by addition of 20 μl of a solution containing 130 mM Hepes-NaOH, pH 7.4, 0.0195% (v/v) Brij-35, 6.5 mM EDTA, 0.13% chip coating reagent 3 (Caliper Lifescience Inc, Hopkinton, Mass.) and 6.5% (v/v) DMSO. Phosphorylation of the substrate peptide was then detected on a Caliper 3000 instrument essentially as described by Pommereau et al (J. Biomol. Screening 2004, 9(5), […]), Separation conditions were as follows: Pressure −0.8 psi, upstream voltage −3000 V, downstream voltage −800 V. Positive controls (buffer 1 instead of compound) and negative controls (buffer 1 instead of compound and buffer 2 instead of kinase solution) were run in parallel on each plate. Fractional turnover (R) was determined as the height of the peak of the phosphorylated peptide product divided by the sum of the unphosphorylated substrate and phosphorylated product peak heights. Percent-inhibition values for the test compounds were determined using the formula
% Inhibition=100*(1−(Rcompound−Rnegative control)/(Rpositive control−Rnegative control).

T1 sequence (P05771 1-673 isoform P05771-2): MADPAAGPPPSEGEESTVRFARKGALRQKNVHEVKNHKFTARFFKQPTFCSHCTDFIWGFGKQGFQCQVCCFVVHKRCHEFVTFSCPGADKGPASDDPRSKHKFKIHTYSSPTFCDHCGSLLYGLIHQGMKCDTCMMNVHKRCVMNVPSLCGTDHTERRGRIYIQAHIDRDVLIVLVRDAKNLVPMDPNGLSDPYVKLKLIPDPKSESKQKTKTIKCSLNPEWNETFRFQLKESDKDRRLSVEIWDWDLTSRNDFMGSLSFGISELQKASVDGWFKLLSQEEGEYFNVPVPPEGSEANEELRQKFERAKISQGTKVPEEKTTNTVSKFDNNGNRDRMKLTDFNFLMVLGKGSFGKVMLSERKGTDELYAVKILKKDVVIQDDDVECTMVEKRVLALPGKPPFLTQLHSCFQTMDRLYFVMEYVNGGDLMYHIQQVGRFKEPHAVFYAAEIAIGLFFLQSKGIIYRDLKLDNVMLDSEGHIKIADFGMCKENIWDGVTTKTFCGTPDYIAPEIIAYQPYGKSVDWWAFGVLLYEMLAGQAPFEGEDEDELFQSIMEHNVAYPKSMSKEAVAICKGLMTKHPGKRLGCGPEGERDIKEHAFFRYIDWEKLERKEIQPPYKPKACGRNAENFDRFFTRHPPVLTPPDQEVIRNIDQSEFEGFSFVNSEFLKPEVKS

In order of rising inhibition at 1.14 µM:
1. CC(C)N1CCN(C(=O)c2cc(-c3ccc(O)cc3)nc3[nH]ncc23)CC1 [Example 56, [6-(4-Hydroxy-phenyl)-1H-pyrazolo[3,4-b]pyridin-4-yl]-(4-isopropyl-piperazin-1-yl)-methanone]  23%
2. COCCN1CCN(C(=O)c2cc(-c3ccc(O)cc3)nc3[nH]ncc23)CC1 [Example 71, [6-(4-Hydroxy-phenyl)-1H-pyrazolo[3,4-b]pyridin-4-yl]-[4-(2-methoxy-ethyl)-piperazin-1-yl]-methanone]  27%
3. O=C(c1cc(-c2ccc(O)cc2)nc2[nH]ncc12)N1CCC2(CC1)CNc1ccccc12 [Example 49]  28%
4. O=C(c1cc(-c2ccc(O)cc2)nc2[nH]ncc12)N1CCCC2(CCNC2)C1 (stereo not shown) [Example 24, (2,7-Diaza-spiro[4.5]dec-7-yl)-[6-(4-hydroxy-phenyl)-1H-pyrazolo[3,4-b]pyridin-4-yl]-methanone]  29%
5. CC1CCN(C2CCN(C(=O)c3cc(-c4ccc(O)cc4)nc4[nH]ncc34)C2)CC1 (stereo not shown) [Example 65, [6-(4-Hydroxy-phenyl)-1H-pyrazolo[3,4-b]pyridin-4-yl]-[3-(4-methyl-piperidin-1-yl)-pyrrolidin-1-yl]-methanone]  34%
6. O=C(NCC1CNC1)c1cc(-c2ccc(O)cc2)nc2[nH]ncc12 [Example 13, 6-(4-Hydroxy-phenyl)-1H-pyrazolo[3,4-b]pyridine-4-carboxylic acid (azetidin-3-ylmethyl)-amide]  39%
7. O=C(c1cc(-c2ccc(O)cc2)nc2[nH]ncc12)N1CC2CNCC2C1 (stereo not shown) [Example 46, (Hexahydro-pyrrolo[3,4-c]pyrrol-2-yl)-[6-(4-hydroxy-phenyl)-1H-pyrazolo[3,4-b]pyridin-4-yl]-methanone]  39%
8. O=C(c1cc(-c2ccc(O)cc2)nc2[nH]ncc12)N1CCC2(CCNCC2)C1 [Example 22, (2,8-Diaza-spiro[4.5]dec-2-yl)-[6-(4-hydroxy-phenyl)-1H-pyrazolo[3,4-b]pyridin-4-yl]-methanone]  42%
9. O=C(c1cc(-c2ccc(O)cc2)nc2[nH]ncc12)N1CCC2(CCNCC2)CC1 [Example 44, (3,9-Diaza-spiro[5.5]undec-3-yl)-[6-(4-hydroxy-phenyl)-1H-pyrazolo[3,4-b]pyridin-4-yl]-methanone]  44%
10. O=C(c1cc(-c2ccc(O)cc2)nc2[nH]ncc12)N1CCC2CNCC21 (stereo not shown) [Example 34, (Hexahydro-pyrrolo[3,4-b]pyrrol-1-yl)-[6-(4-hydroxy-phenyl)-1H-pyrazolo[3,4-b]pyridin-4-yl]-methanone]  45%
11. CCN1CCCN(C(=O)c2cc(-c3ccc(O)cc3)nc3[nH]ncc23)CC1 [Example 64, (4-Ethyl-[1,4]diazepan-1-yl)-[6-(4-hydroxy-phenyl)-1H-pyrazolo[3,4-b]pyridin-4-yl]-methanone]  45%
12. N[C@H]1CC[C@@H](CNC(=O)c2cc(-c3ccc(O)cc3)nc3[nH]ncc23)CC1 [Example 12, 6-(4-Hydroxy-phenyl)-1H-pyrazolo[3,4-b]pyridine-4-carboxylic acid (cis-4-amino-cyclohexylmethyl)-amide]  46%
13. N[C@H]1CC[C@@H](NC(=O)c2cc(-c3ccc(O)cc3)nc3[nH]ncc23)CC1 [Example 8, 6-(4-Hydroxy-phenyl)-1H-pyrazolo[3,4-b]pyridine-4-carboxylic acid (cis-4-amino-cyclohexyl)-amide]  46%
14. CN(C)[C@H]1CCN(C(=O)c2cc(-c3ccc(O)cc3)nc3[nH]ncc23)C1 [Example 55, ((S)-3-Dimethylamino-pyrrolidin-1-yl)-[6-(4-hydroxy-phenyl)-1H-pyrazolo[3,4-b]pyridin-4-yl]-methanone]  47%
15. O=C(c1cc(-c2ccc(O)cc2)nc2[nH]ncc12)N1CCC2(CCNC2)CC1 [Example 43, (2,8-Diaza-spiro[4.5]dec-8-yl)-[6-(4-hydroxy-phenyl)-1H-pyrazolo[3,4-b]pyridin-4-yl]-methanone]  52%
16. NC1CN(C(=O)c2cc(-c3ccc(O)cc3)nc3[nH]ncc23)C1 [Example 36, (3-Amino-azetidin-1-yl)-[6-(4-hydroxy-phenyl)-1H-pyrazolo[3,4-b]pyridin-4-yl]-methanone]  54%
17. O=C(N[C@@H]1CCCN(Cc2ccccc2)C1)c1cc(-c2ccc(O)cc2)nc2[nH]ncc12 [Example 77, 6-(4-Hydroxy-phenyl)-1H-pyrazolo[3,4-b]pyridine-4-carboxylic acid ((R)-1-benzyl-piperidin-3-yl)-amide]  57%
18. O=C(c1cc(-c2ccc(O)cc2)nc2[nH]ncc12)N1CCC2(CCNC2)C1 (stereo not shown) [Example 25, (2,7-Diaza-spiro[4.4]non-2-yl)-[6-(4-hydroxy-phenyl)-1H-pyrazolo[3,4-b]pyridin-4-yl]-methanone]  58%
19. CN1CCC(NC(=O)c2cc(-c3ccc(O)cc3)nc3[nH]ncc23)CC1 [Example 66, 6-(4-Hydroxy-phenyl)-1H-pyrazolo[3,4-b]pyridine-4-carboxylic acid (1-methyl-piperidin-4-yl)-amide]  59%
20. NC1CCN(C(=O)c2cc(-c3ccc(O)cc3)nc3[nH]ncc23)CC1 [Example 38, (4-Amino-piperidin-1-yl)-[6-(4-hydroxy-phenyl)-1H-pyrazolo[3,4-b]pyridin-4-yl]-methanone]  60%
21. CNC1CCN(C(=O)c2cc(-c3ccc(O)cc3)nc3[nH]ncc23)C1 (stereo not shown) [Example 39, [6-(4-Hydroxy-phenyl)-1H-pyrazolo[3,4-b]pyridin-4-yl]-(3-methylamino-pyrrolidin-1-yl)-methanone]  62%
22. O=C(NC1CCNC2(CCC2)C1)c1cc(-c2ccc(O)cc2)nc2[nH]ncc12 (stereo not shown) [Example 32, 6-(4-Hydroxy-phenyl)-1H-pyrazolo[3,4-b]pyridine-4-carboxylic acid (5-aza-spiro[3.5]non-8-yl)-amide]  69%
23. O=C(N[C@@H]1CN2CCC1CC2)c1cc(-c2ccc(O)cc2)nc2[nH]ncc12 [Example 40, 6-(4-Hydroxy-phenyl)-1H-pyrazolo[3,4-b]pyridine-4-carboxylic acid-(S)-(1-Aza-bicyclo[2.2.2]oct-3-yl)amide]  71%
24. CN1CC(NC(=O)c2cc(-c3ccc(O)cc3)nc3[nH]ncc23)C1 [Example 62, 6-(4-Hydroxy-phenyl)-1H-pyrazolo[3,4-b]pyridine-4-carboxylic acid (1-methyl-azetidin-3-yl)-amide]  73%
25. O=C(NC1CN2CCC1CC2)c1cc(-c2ccc(O)cc2)nc2[nH]ncc12 (stereo not shown) [Example 72, 6-(4-Hydroxy-phenyl)-1H-pyrazolo[3,4-b]pyridine-4-carboxylic acid (1-aza-bicyclo[2.2.2]oct-3-yl)-amide]  78%
26. O=C(c1cc(-c2ccc(O)cc2)nc2[nH]ncc12)N1CC2CC1CN2 (stereo not shown) [Example 47, 2,5-Diaza-bicyclo[2.2.1]hept-2-yl-[6-(4-hydroxy-phenyl)-1H-pyrazolo[3,4-b]pyridin-4-yl]-methanone]  81%
27. O=C(N[C@@H]1CCCNC1)c1cc(-c2ccc(O)cc2)nc2[nH]ncc12 [Example 19, 6-(4-Hydroxy-phenyl)-1H-pyrazolo[3,4-b]pyridine-4-carboxylic acid (R)-piperidin-3-ylamide]  83%
28. O=C(NC1CCN(Cc2cccnc2)CC1)c1cc(-c2ccc(O)cc2)nc2[nH]ncc12 [Example 78, 6-(4-Hydroxy-phenyl)-1H-pyrazolo[3,4-b]pyridine-4-carboxylic acid (1-pyridin-3-ylmethyl-piperidin-4-yl)-amide]  84%
29. NC1CCCC(NC(=O)c2cc(-c3ccc(O)cc3)nc3[nH]ncc23)C1 (stereo not shown) [Example 33, 6-(4-Hydroxy-phenyl)-1H-pyrazolo[3,4-b]pyridine-4-carboxylic acid (3-amino-cyclohexyl)-amide]  87%
30. O=C(c1cc(-c2ccc(O)cc2)nc2[nH]ncc12)N1CCNCC1 [Example 4, [6-(4-Hydroxy-phenyl)-1H-pyrazolo[3,4-b]pyridin-4-yl]-piperazin-1-yl-methanone]  88%
31. CC1(C)CNCCN1C(=O)c1cc(-c2ccc(O)cc2)nc2[nH]ncc12 [Example 10, (2,2-Dimethyl-piperazin-1-yl)-[6-(4-hydroxy-phenyl)-1H-pyrazolo[3,4-b]pyridin-4-yl]-methanone]  96%
